Experimental data as given in US8735414B2 (priority 2009, dated 2014).

Legend:
[1] = test system: bicistronic HCV replicon (replicon RNA, GenBank Accession No. AJ242654); assay: HCV Replicon Assay; format: cell-based; settings: Hepatitis C virus, 72 h, read-out: Replicon IC50

With CCc1cc2c(cc1F)c(C#N)c(-c1ccc(S(=O)(=O)N[C@@H](C)C(F)(F)F)cn1)n2-c1cc(OC)ccn1 [compound 955, 6-[3-cyano-6-ethyl-5-fluoro-1-(4-methoxypyridin-2-yl)-1H-indol-2-yl]-N-[(2S)-1,1,1-trifluoropropan-2-yl]pyridine-3-sulfonamide] as the compound, how does the melting point read?
Its melting point is 227 to 233 °C.

What about the IC50 [1] of the same compound?
Its IC50 is less than 500 nM.

Which melting point does the source give for Cc1cc2c(cc1F)cc(-c1ccc(S(=O)(=O)N[C@@H](C)C(F)(F)F)cn1)n2-c1nccs1 [compound 903, 6-[5-fluoro-6-methyl-1-(1,3-thiazol-2-yl)-1H-indol-2-yl]-N-[(2S)-1,1,1-trifluoropropan-2-yl]pyridine-3-sulfonamide] here?
Its melting point is 224 to 230 °C.

What about the IC50 [1] of the same compound?
Its IC50 is less than 500 nM.

Which results are given for Cc1cc2c(cc1F)c(C#N)c(-c1ccc(S(=O)(=O)N[C@@H](C)C(F)(F)F)cn1)n2-c1sccc1C [compound 1000, 6-[3-cyano-5-fluoro-6-methyl-1-(3-methylthiophen-2-yl)-1H-indol-2-yl]-N-[(2S)-1,1,1-trifluoropropan-2-yl]pyridine-3-sulfonamide]?
melting point: 197 to 203.8 °C; IC50 [1]: < 500 nM

Which results are given for C[C@H](NS(=O)(=O)c1ccc(-c2c(C#N)c3ccc(OC(F)F)cc3n2C2CCCC2)nc1)C1CC1 [compound 174, 6-[3-cyano-1-cyclopentyl-6-(difluoromethoxy)-1H-indol-2-yl]-N-[(1S)-1-cyclopropylethyl]pyridine-3-sulfonamide]?
melting point: 176 to 182 °C; IC50 [1]: < 500 nM

With Cc1ccc2c(c1)c(C#N)c(-c1ccc(S(=O)(=O)NC(CF)CF)cn1)n2C1CCCCC1 [compound 199, 6-(3-cyano-1-cyclohexyl-5-methyl-1H-indol-2-yl)-N-(1,3-difluoropropan-2-yl)pyridine-3-sulfonamide] as the compound, how does the melting point read?
Its melting point is 210 to 215 °C.

What about the IC50 [1] of the same compound?
Its IC50 is less than 500 nM.

For Cc1cc(F)c2c(C#N)c(-c3ccc(S(=O)(=O)NC4(C(F)(F)F)CC4)cn3)n(C3CCC3)c2c1 [compound 629, 6-(3-cyano-1-cyclobutyl-4-fluoro-6-methyl-1H-indol-2-yl)-N-[1-(trifluoromethyl)cyclopropyl]pyridine-3-sulfonamide], which melting point is on record?
The melting point was 241 to 246 °C.

What about the IC50 [1] of the same compound?
The IC50 was 2000 to 5000 nM.

Which melting point does the source give for N#Cc1c(-c2ncc(S(=O)(=O)NC(CF)CF)cn2)n(C2CCCCC2)c2ccc(Cl)cc12 [compound 463, 2-(5-chloro-3-cyano-1-cyclohexyl-1H-indol-2-yl)-N-(1,3-difluoropropan-2-yl)pyrimidine-5-sulfonamide] here?
Its melting point is 251 to 253 °C.

What about the IC50 [1] of the same compound?
The IC50 was less than 500 nM.

Which melting point does the source give for COc1ccc(-n2c(-c3ncc(S(=O)(=O)NC(CF)CF)cn3)c(C#N)c3cc(F)ccc32)cc1 [compound 337, 2-[3-cyano-5-fluoro-1-(4-methoxyphenyl)-1H-indol-2-yl]-N-(1,3-difluoropropan-2-yl)pyrimidine-5-sulfonamide] here?
The melting point was 209 to 211 °C.

What about the IC50 [1] of the same compound?
Its IC50 is 500 to 2000 nM.

Which results are given for CC(=O)N([C@H](C)C(F)(F)F)S(=O)(=O)c1ccc(-c2c(C#N)c3cc(F)c(C)cc3n2C2CCCC2)nc1 [compound 709, N-{[6-(3-cyano-1-cyclopentyl-5-fluoro-6-methyl-1H-indol-2-yl)pyridin-3-yl]sulfonyl}-N-[(2R)-1,1,1-trifluoropropan-2-yl]acetamide]?
melting point: 162 to 163 °C; IC50 [1]: < 500 nM

Which melting point does the source give for Cc1ccc2c(C#N)c(-c3ncc(S(=O)(=O)NC(C)C)cn3)n(C(C)C)c2c1 [compound 167, 2-[3-cyano-6-methyl-1-(propan-2-yl)-1H-indol-2-yl]-N-(propan-2-yl)pyrimidine-5-sulfonamide] here?
Its melting point is 205 to 206 °C.

What about the IC50 [1] of the same compound?
Its IC50 is less than 500 nM.

Which melting point does the source give for C[C@@H](NS(=O)(=O)c1ccc(-c2c(C#N)c3ccc(OC(F)(F)F)cc3n2C2CCC2)nc1)C(F)(F)F [compound 191, 6-[3-cyano-1-cyclobutyl-6-(trifluoromethoxy)-1H-indol-2-yl]-N-[(2R)-1,1,1-trifluoropropan-2-yl]pyridine-3-sulfonamide] here?
The melting point was 171 to 177 °C.

What about the IC50 [1] of the same compound?
The IC50 was 500 to 2000 nM.

With Cc1ccc2c(C#N)c(-c3ccc(S(=O)(=O)NC4(C(F)(F)F)CC4)cn3)n(C3CCCC3)c2c1 [compound 190, 6-(3-cyano-1-cyclopentyl-6-methyl-1H-indol-2-yl)-N-[1-(trifluoromethyl)cyclopropyl]pyridine-3-sulfonamide] as the compound, how does the melting point read?
Its melting point is 199 to 210 °C.

And the IC50 [1]?
The IC50 was less than 500 nM.

Which melting point does the source give for Cc1cnc(-n2c(-c3ccc(S(=O)(=O)N[C@@H](C)C(F)(F)F)cn3)c(C(N)=O)c3cc(F)c(C)cc32)cn1 [compound 904, 5-fluoro-6-methyl-1-(5-methylpyrazin-2-yl)-2-(5-{[(2S)-1,1,1-trifluoropropan-2-yl]sulfamoyl}pyridin-2-yl)-1H-indole-3-carboxamide] here?
Its melting point is 202 to 208 °C.

And the IC50 [1]?
The IC50 was less than 500 nM.

For Cc1ccc2c(C#N)c(-c3ccc(NS(=O)(=O)C4CC4)cn3)n(C3CCCC3)c2c1 [compound 296, N-[6-(3-cyano-1-cyclopentyl-6-methyl-1H-indol-2-yl)pyridin-3-yl]cyclopropanesulfonamide], which melting point is on record?
The melting point was 241 to 245 °C.

What about the IC50 [1] of the same compound?
The IC50 was 2000 to 5000 nM.

For CC(C)(C)S(=O)(=O)Nc1ccc(-c2c(C#N)c3c(F)cc(C4CC4)cc3n2C2CCCCC2)nc1 [compound 1092, N-[6-(3-cyano-1-cyclohexyl-6-cyclopropyl-4-fluoro-1H-indol-2-yl)pyridin-3-yl]-2-methylpropane-2-sulfonamide], which melting point is on record?
Its melting point is 252 to 255 °C.

What about the IC50 [1] of the same compound?
Its IC50 is less than 500 nM.

Which melting point does the source give for N#Cc1ccc2c(C#N)c(-c3ncc(S(=O)(=O)NC(CF)CF)cn3)n(C3CCCC3)c2c1 [compound 469, 2-(3,6-dicyano-1-cyclopentyl-1H-indol-2-yl)-N-(1,3-difluoropropan-2-yl)pyrimidine-5-sulfonamide] here?
The melting point was 246 to 247 °C.

What about the IC50 [1] of the same compound?
Its IC50 is 500 to 2000 nM.

Which melting point does the source give for CCCn1c(-c2ccc(S(=O)(=O)N[C@H](C)C(F)(F)F)cn2)c(C#N)c2cc(F)c(OC(F)F)cc21 [compound 788, 6-[3-cyano-6-(difluoromethoxy)-5-fluoro-1-propyl-1H-indol-2-yl]-N-[(2R)-1,1,1-trifluoropropan-2-yl]pyridine-3-sulfonamide] here?
The melting point was 160 to 166 °C.

What about the IC50 [1] of the same compound?
Its IC50 is less than 500 nM.

Which melting point does the source give for Cc1ccc2c(C#N)c(-c3ccc(S(=O)(=O)NC(CF)CF)cn3)n(C3CCC3)c2c1F [compound 422, 6-(3-cyano-1-cyclobutyl-7-fluoro-6-methyl-1H-indol-2-yl)-N-(1,3-difluoropropan-2-yl)pyridine-3-sulfonamide] here?
Its melting point is 186 to 201 °C.

And the IC50 [1]?
Its IC50 is less than 500 nM.

For C[C@H](NS(=O)(=O)c1ccc(-c2c(C#N)c3cc(C(F)(F)F)ccc3n2-c2ncccn2)nc1)C(F)(F)F [compound 922, 6-[3-cyano-1-(pyrimidin-2-yl)-5-(trifluoromethyl)-1H-indol-2-yl]-N-[(2S)-1,1,1-trifluoropropan-2-yl]pyridine-3-sulfonamide], which melting point is on record?
The melting point was 180 to 183 °C.

What about the IC50 [1] of the same compound?
The IC50 was less than 500 nM.

For COc1ccc2c(C#N)c(-c3ncc(S(=O)(=O)N[C@@H](C)C4CC4)cn3)n(C3CCC3)c2c1 [compound 205, 2-(3-cyano-1-cyclobutyl-6-methoxy-1H-indol-2-yl)-N-[(1S)-1-cyclopropylethyl]pyrimidine-5-sulfonamide], which melting point is on record?
Its melting point is 204 to 206 °C.

And the IC50 [1]?
Its IC50 is less than 500 nM.
